Source: ChEMBL document CHEMBL1127106, “Synthesis and cytotoxic activity of () octadecylphosphodithionyl-1-myo-inositol” (1993)
“And” between values parts separate entries of the source, which are not always exact repeats. Identical values can stand only once.

How the values were obtained:
Assay type in all cases: functional, Homo sapiens
K562 [1] = test: Cytotoxic activity on K-562 erythroleukemia cell line suspension in 5% foetal calf serum (FCS) at 10e-4 M concentration after 1 hr
K562 [2] = test: Cytotoxic activity on K-562 erythroleukemia cell line suspension in 5% foetal calf serum (FCS) at 10e-6 M concentration after 24 hr
K562 [3] = test: Cytotoxic activity on K-562 erythroleukemia cell line suspension in 5% foetal calf serum (FCS) at 4*10e-4 M concentration after 1 hr
K562 [4] = test: Cytotoxic activity on K-562 erythroleukemia cell line suspension in 5% foetal calf serum (FCS) at 10e-5 M concentration after 2 hr
K562 [5] = test: Cytotoxic activity on K-562 erythroleukemia cell line suspension in 5% foetal calf serum (FCS) at 10e-5 M concentration after 1 hr
K562 [6] = test: Cytotoxic activity on K-562 erythroleukemia cell line suspension in 5% foetal calf serum (FCS) at 4*10e-5 M concentration after 1 hr
K562 [7] = test: Cytotoxic activity on K-562 erythroleukemia cell line suspension in 5% foetal calf serum (FCS) at 4*10e-6 M concentration after 1 hr
K562 [8] = test: Cytotoxic activity on K-562 erythroleukemia cell line suspension in 5% foetal calf serum (FCS) at 10e-3 M concentration after 24 hr
K562 [9] = test: Cytotoxic activity on K-562 erythroleukemia cell line suspension in 5% foetal calf serum (FCS) at 4*10e-5 M concentration after 24 hr
K562 [10] = test: Cytotoxic activity on K-562 erythroleukemia cell line suspension in 5% foetal calf serum (FCS) at 10e-6 M concentration after 1 hr
K562 [11] = test: Cytotoxic activity on K-562 erythroleukemia cell line suspension in 5% foetal calf serum (FCS) at 4*10e-4 M concentration after 24 hr
K562 [12] = test: Cytotoxic activity on K-562 erythroleukemia cell line suspension in 5% foetal calf serum (FCS) at 4*10e-5 M concentration after 2 hr
K562 [13] = test: Cytotoxic activity on K-562 erythroleukemia cell line suspension in 5% foetal calf serum (FCS) at 10e-5 M concentration after 24 hr
K562 [14] = test: Cytotoxic activity on K-562 erythroleukemia cell line suspension in 5% foetal calf serum (FCS) at 10e-4 M concentration after 24 hr
K562 [15] = test: Cytotoxic activity on K-562 erythroleukemia cell line suspension in 5% foetal calf serum (FCS) at 10e-3 M concentration after 2 hr
K562 [16] = test: Cytotoxic activity on K-562 erythroleukemia cell line suspension in 5% foetal calf serum (FCS) at 10e-4 M concentration after 2 hr
K562 [17] = test: Cytotoxic activity on K-562 erythroleukemia cell line suspension in 5% foetal calf serum (FCS) at 10e-6 M concentration after 2 hr
K562 [18] = test: Cytotoxic activity on K-562 erythroleukemia cell line suspension in 5% foetal calf serum (FCS) at 4*10e-6 M concentration after 2 hr
K562 [19] = test: Cytotoxic activity on K-562 erythroleukemia cell line suspension in 5% foetal calf serum (FCS) at 10e-3 M concentration after 1 hr
K562 [20] = test: Cytotoxic activity on K-562 erythroleukemia cell line suspension in 5% foetal calf serum (FCS) at 4*10e-6 M concentration after 24 hr

CCCCCCCCCCCCCCCCCCSP(O)(=S)O[C@@H]1[C@@H](O)[C@H](O)[C@@H](O)[C@H](O)[C@@H]1O (stereo not given in full) gave a Dead cells (K562 [1]) of 18.4%, a Dead cells (K562 [2]) of 27.2% and a Dead cells (K562 [3]) of 48.2%. For the same compound, the Dead cells (K562 [4]) was 16.6%, the Dead cells (K562 [5]) was 13.3% and the Dead cells (K562 [6]) was 15.5%. For the same compound, the Dead cells (K562 [7]) was 13.3%, the Dead cells (K562 [8]) was 96.2% and the Dead cells (K562 [9]) was 24.4%. For the same compound, the Dead cells (K562 [10]) was 14%, the Dead cells (K562 [11]) was 71.1% and the Dead cells (K562 [12]) was 17%. For the same compound, the Dead cells (K562 [13]) was 23.3%, the Dead cells (K562 [14]) was 40% and the Dead cells (K562 [15]) was 52.52%. The Dead cells (K562 [16]) was 22.7%, the Dead cells (K562 [17]) was 18.2% and the Dead cells (K562 [18]) was 16.8% and 45.9%. For the same compound, the Dead cells (K562 [19]) was 48.9% and the Dead cells (K562 [20]) was 22.5%.
